{"source": "patent US20230123889A1", "about": "“METHOD FOR DEGRADING BENZO(A)PYRENE WITH A HALOPHILIC BACTERIUM STRAIN OF STAPHYLOCOCCUS HAEMOLITICUS” (KING FAHD UNIVERSITY OF PETROLEUM AND MINERALS, priority 2021, published 2023)", "type_in_all_cases": "cell-based", "key": {"[1]": {"system": "Staphylococcus haemoliticus 10SBZ1A strain", "assay": "Bacterial growth assessment (doubling time, CFU/ml) in the presence of BZP and various hydrocarbon substrates as carbon source", "details": "for strain dt in the presence of substrate (FIG. 3): substrate as carbon source; for Doubling time (dt, h): strain growing on BaP", "experimental": "Bacterial growth assessment in the presence of BZP and various hydrocarbon molecules: effect of pH and salinity. To initiate these experiments, bacteria were pre-cultured in an LB rich medium, and around 5×10^5 colony forming units (CFU) of these bacteria were added to 50 ml BH medium containing 100 μmol BZP, unless otherwise stated. Non-polar substrates pyrene, phenanthrene, naphthalene and anthracene were dissolved in dimethyl sulfoxide (DMSO) [0.1 g/ml], while the water-soluble substrates SALC and CATC were dissolved directly in BH medium. The aliphatic compounds were directly added to the medium. […] Growth was monitored as a measure of CFU/ml.\nBacterial doubling time (dt) was calculated by fitting growth curves data points into […] equation, where Q is the bacterial CFU ml^−1 at time t, Qo is the initial bacterial count in the culture, and k is the growth rate. The growth rate (k) was then used to compute dt values according to the equation: dt=ln(2)/k (in days). Values were calculated with Microsoft Excel software (Version). All experiments were carried out in duplicate."}, "[2]": {"system": "Staphylococcus haemoliticus 10SBZ1A strain", "assay": "Bacterial growth assessment (doubling time, CFU/ml) in the presence of BZP and various hydrocarbon substrates as carbon source"}, "[3]": {"system": "Staphylococcus haemoliticus 10SBZ1A strain", "assay": "Quantification of BZP and substrate utilization in bacterial culture (GC-MS)", "details": "control without bacteria", "experimental": "Quantification of BZP and substrate utilization. The remaining BZP was quantified in a bacterial culture of 100 ml containing 20 μmol BZP for 18 days, according to the protocol reported by and incorporated by reference to Budiyanto, F, et al. (2017). Characterization of halophilic bacteria capable of efficiently biodegrading the high molecular weight polycyclic aromatic hydrocarbon pyrene. Environmental Engineering Science. June 2018.616-626.\nA sample corresponding to one culture flask of 100 ml, was collected every 5 days and subjected to extraction as follows. The samples were sonicated for 30 min and then extracted twice with ethyl acetate (50 ml). The combined organic layers were dehydrated with calcium chloride and then dried under vacuum. Samples were re-dissolved in 500 μl of chloroform prior to analysis by gas chromatography-mass spectrometry (GC-MS). […] Values of quantified BZP were fitted in the exponential decay equation, Qt=Qoe^−kt to obtain the biodegradation rate constant (k); see Lu, J, C Guo, et al. (2014). […]\nThe mixture was then diluted with 1.0 ml of chloroform prior to its analysis by GC-MS. […] Values of quantified BZP were fitted in the exponential decay equation, Qt=Qoe^−kt to obtain the biodegradation rate constant (k); see Lu et al., International Biodeterioration & Biodegradation 87: 75-80."}}, "note": "Marks after values point to notes of the source that are not given here."}
{"compound": "c1ccc2cc3ccccc3cc2c1", "note": "[anthracene]", "values": [{"measurement": "strain dt in the presence of substrate (FIG. 3)", "setting": "[1]", "value": "30 to 33", "unit": "h"}]}
{"compound": "c1ccc2c(c1)cc1ccc3cccc4ccc2c1c34", "note": "[BZP, benzo(a)pyrene]", "values": [{"measurement": "Doubling time (dt, h)", "setting": "[2]; Temperature 37° C., strain growing on BaP", "value": "21+1 h"}, {"measurement": "range of dt", "setting": "[2]; temperatures 35, 37, 40° C.", "value": "21 to 29", "unit": "h"}, {"measurement": "growth", "setting": "[1]; 0% NaCl", "value": "No growth"}, {"measurement": "doubling time", "setting": "[1]; 4-200 μmol of BZP as sole source of carbon", "value": "2 to 10", "unit": "h"}, {"measurement": "growth", "setting": "[1]; 20% NaCl", "value": "No growth"}, {"measurement": "maximum count", "setting": "[1]; BZP 20 μmol.1^−1", "value": "> 10^9 CFU ml^−1"}, {"measurement": "time at which the maximum growth was achieved", "setting": "[1]; BZP 400 μmol.1^−1", "value": 15, "unit": "days"}, {"measurement": "dt values", "setting": "[1]; BZP 1 to 100 μmol.1^1", "value": "15 to 20", "unit": "h"}, {"measurement": "maximum count", "setting": "[1]; BZP 5 to 20 μmol.1^−1", "value": "10^7-10^8 CFU/ml"}, {"measurement": "time to reach maximum growth", "setting": "[1]; BZP 5 to 20 μmol.1^−1", "value": "6 to 8", "unit": "days"}, {"measurement": "dt values relative to those at 1 to 100 μmol.1^1", "setting": "[1]; BZP 200 and 400 μmol.1^−1", "value": "almost doubled"}, {"measurement": "Doubling time (dt, h)", "setting": "[1]; Salinity 5% NaCl", "value": "44 ± 7", "unit": "h"}, {"measurement": "Doubling time (dt, h)", "setting": "[1]; Salinity 5% NaCl, listed as benzo(a)pyrene", "value": "46.8 ± 7.4", "unit": "h"}, {"measurement": "Doubling time (dt, h)", "setting": "[1]; Salinity 10% NaCl", "value": "21 ± 1", "unit": "h"}, {"measurement": "Doubling time (dt, h)", "setting": "[1]; Salinity 10% NaCl, listed as benzo(a)pyrene", "value": "21.5 ± 1.0", "unit": "h"}, {"measurement": "Doubling time (dt, h)", "setting": "[1]; Salinity 15% NaCl", "value": "156 ± 73", "unit": "h"}, {"measurement": "Doubling time (dt, h)", "setting": "[1]; Salinity 15% NaCl, listed as benzo(a)pyrene", "value": "156 ± 74", "unit": "h"}, {"measurement": "Doubling time (dt, h)", "setting": "[1]; Temperature 35° C.", "value": "28.5 ± 2.4^b h"}, {"measurement": "Doubling time (dt, h)", "setting": "[1]; Temperature 37° C.", "value": "21.5 ± 1.0^b h"}, {"measurement": "Doubling time (dt, h)", "setting": "[1]; Temperature 40° C.", "value": "24.5 ± 1.0", "unit": "h"}, {"measurement": "growth at other pH values", "setting": "[1]; pH 5, 6, 8 and 9", "value": "slow"}, {"measurement": "dt values", "setting": "[1]; pH 7", "value": "21.49±0.98"}, {"measurement": "Doubling time (dt, h)", "setting": "[1]; pH 7", "value": "21.5 ± 1.0", "unit": "h"}, {"measurement": "strain dt in the presence of substrate (FIG. 3)", "setting": "[1]", "value": "around 42 h"}, {"measurement": "abiotic degradation", "setting": "[3]", "value": "Around 20%"}]}
{"compound": "OCC(O)CO", "note": "[glycerol]", "values": [{"measurement": "strain dt in the presence of substrate (FIG. 3)", "setting": "[1]", "value": "around 11 hours"}]}
{"compound": "c1cc2ccc3cccc4ccc(c1)c2c34", "note": "[pyrene]", "values": [{"measurement": "strain dt in the presence of substrate (FIG. 3)", "setting": "[1]", "value": "similar"}]}
